The values below come from patent publication US12390446B2 (RESEARCH TRIANGLE INSTITUTE, priority 2017, dated 2025).

Where two headings read alike, the source gives them in different places.

Assay [1] addresses T1, NPFF1 receptor (human NPFFR1 in CHO-RD-HGA16 cells) (Homo sapiens, UniProt Q9GZQ6).
T1 construct: expressed in transfected cells
Put plainly: Calcium mobilization functional Ke assay, NPFF1. Format: cell-based. The following applies: for Kb: read-out: NPFF1 Ke; for type of antagonism in curve-shift assays: standard incubation, competitive profile with longer incubations. Background: Calcium flux is commonly read through the fluorescence of an indicator in the cells.

In assay [2] the target is T2, NPFF2 receptor (human NPFFR2 in CHO-RD-HGA16 cells) (Homo sapiens, UniProt Q9Y5X5).
T2 construct: expressed in transfected cells
T2 sequence (Q9Y5X5 whole entry): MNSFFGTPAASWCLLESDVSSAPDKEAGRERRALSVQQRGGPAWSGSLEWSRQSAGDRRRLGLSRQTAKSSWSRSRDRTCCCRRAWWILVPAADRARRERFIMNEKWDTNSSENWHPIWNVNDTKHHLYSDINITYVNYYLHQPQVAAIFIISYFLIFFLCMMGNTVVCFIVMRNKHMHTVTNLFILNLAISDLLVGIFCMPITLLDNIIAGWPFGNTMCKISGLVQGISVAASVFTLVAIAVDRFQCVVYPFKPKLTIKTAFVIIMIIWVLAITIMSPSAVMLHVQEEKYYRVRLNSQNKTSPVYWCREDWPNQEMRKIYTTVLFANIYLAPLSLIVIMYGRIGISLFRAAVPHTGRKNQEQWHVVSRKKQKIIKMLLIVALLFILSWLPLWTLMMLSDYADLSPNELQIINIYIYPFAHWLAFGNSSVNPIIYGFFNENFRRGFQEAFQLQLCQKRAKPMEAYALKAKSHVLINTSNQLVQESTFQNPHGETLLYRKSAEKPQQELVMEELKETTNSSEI
Put plainly: Calcium mobilization functional Ke assay, NPFF2. As to conditions: for Kb: read-out: NPFF2 Ke. In kind it is cell-based.

Setting [3] is: Table 1, footnote c: pre-incubation of antagonist and test compound 45 min or 1 hr.
[4] abbreviates: Table 1, mean ± SEM, apparent dissociation constant vs NPFF.
[5] abbreviates: Table 2, 4-(4-methylthio)benzylamino series, mean ± SEM.

T1 sequence (Q9GZQ6 whole entry): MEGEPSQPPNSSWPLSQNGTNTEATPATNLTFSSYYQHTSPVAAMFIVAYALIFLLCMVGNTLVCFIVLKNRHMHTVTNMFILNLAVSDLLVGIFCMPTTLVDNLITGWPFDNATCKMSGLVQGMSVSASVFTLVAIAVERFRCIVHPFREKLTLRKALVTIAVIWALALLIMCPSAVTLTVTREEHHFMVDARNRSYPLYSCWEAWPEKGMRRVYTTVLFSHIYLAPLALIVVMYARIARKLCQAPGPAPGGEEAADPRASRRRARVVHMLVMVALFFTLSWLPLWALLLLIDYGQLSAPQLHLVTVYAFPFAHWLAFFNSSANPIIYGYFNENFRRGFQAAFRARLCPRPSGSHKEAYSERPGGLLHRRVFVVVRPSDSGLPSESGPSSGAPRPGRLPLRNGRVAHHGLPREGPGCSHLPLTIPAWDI

In the case of `CCCCCCCCCCNC(=O)[C@@H]1C[C@H](NCc2ccc(OC)cc2)CN1Cc1ccccc1Cl` [Compound 19, (2S,4S)-1-[(2-Chlorophenyl)methyl]-N-decyl-4-{[(4-methoxyphenyl)methyl]amino}pyrrolidine-2-carboxamide], the Kb in assay [1] (setting [3]) was above 10000 nM.

Regarding `CCNC(=O)[C@@H]1C[C@H](NCc2ccc(SC)cc2)CN1Cc1ccccc1Cl` [Compound 1], the “NPFF1 Ke” value in assay [1] (calcium mobilization assay) is 1,620 nM. In addition, the “NPFF2 Ke” value in assay [2] (calcium mobilization assay) is recorded as 7,250 nM.

With `CCCN[C@H]1C[C@@H](C(=O)NCCc2ccc([N+](=O)[O-])cc2)N(Cc2ccccc2Cl)C1` [Compound 52], the Kb in assay [1] (Table 3, mean ± SEM) was 5160 nM; in assay [2] (Table 3, mean ± SEM), above 10000 nM.

Consider `COc1ccc(CN[C@H]2C[C@@H](C(=O)NCCc3ccccc3)N(Cc3ccc(C)cc3)C2)cc1` [Compound 83, (2S,4S)-4-{[(4-Methoxyphenyl)methyl]amino}-1-[(4-methylphenyl)methyl]-N-(2-phenylethyl)pyrrolidine-2-carboxamide], for which the Kb was 1320 nM in assay [1] and above 10000 nM in assay [2].

In the case of `COc1ccc(CN[C@H]2C[C@@H](C(=O)NCCc3ccccc3)N(Cc3ccc(O)cc3)C2)cc1` [Compound 84, (2S,4S)-1-[(4-Hydroxyphenyl)methyl]-4-{[(4-methoxyphenyl)methyl]amino}-N-(2-phenylethyl)pyrrolidine-2-carboxamide], the Kb in assay [1] (Table 4, mean ± SEM) was above 10000 nM; in assay [2] (Table 4, mean ± SEM), above 10000 nM.

Regarding `COc1ccc(CN[C@H]2C[C@@H](C(=O)NCCc3ccccc3)N(CC3CCCCC3)C2)cc1` [Compound 75, (2S,4S)-1-(Cyclohexylmethyl)-4-{[(4-methoxyphenyl)methyl]amino}-N-(2-phenylethyl) pyrrolidine-2-carboxamide], in assay [1] (Table 4, mean ± SEM), the “NPFF1 Ke” value was determined as 650 ± 70 nM. In assay [2] (Table 4, mean ± SEM), the “NPFF2 Ke” value is on record as 3,640 ± 830 nM.

As to `COc1ccc(CN[C@H]2C[C@@H](C(=O)NCCCc3ccccc3)N(Cc3ccccc3Cl)C2)cc1` [Compound 25, (2S,4S)-1-[(2-Chlorophenyl)methyl]-4-{[(4-methoxyphenyl)methyl]amino}-N-(3-phenylpropyl)pyrrolidine-2-carboxamide], the Kb was above 10000 nM in assay [1] and 2600 nM in assay [2] (setting [3]).

Take `COc1ccc(CN[C@H]2C[C@@H](C(=O)NCCc3ccc([N+](=O)[O-])cc3)N(Cc3ccccc3Cl)C2)cc1OC` [Compound 60, (2S,4S)-1-[(2-Chlorophenyl)methyl]-4-{[(3,4-dimethoxyphenyl)methyl]amino}-N-[2-(4-nitrophenyl)ethyl]pyrrolidine-2-carboxamide]: the Kb in assay [1] (Table 3, mean ± SEM) was determined as 1920 nM; in assay [2] (Table 3, mean ± SEM), 3150 nM.

As to `O=C(NCCc1ccc([N+](=O)[O-])cc1)[C@@H]1C[C@H](NCc2ccc(C(F)(F)F)cc2)CN1Cc1ccccc1Cl` [Compound 62, (2S,4S)-1-[(2-Chlorophenyl)methyl]-N-[2-(4-nitrophenyl)ethyl]-4-({[4-(trifluoromethyl)phenyl]methyl}amino)pyrrolidine-2-carboxamide], the Kb in assay [1] (Table 3, mean ± SEM) came to 2060 nM; in assay [2] (Table 3, mean ± SEM), 6380 nM.

In the case of `COc1ccc(CN[C@H]2C[C@@H](C(=O)NCCc3ccc(C(F)(F)F)cc3)N(Cc3ccccc3Cl)C2)cc1` [Compound 36, (2S,4S)-1-[(2-Chlorophenyl)methyl]-4-{[(4-methoxyphenyl)methyl]amino}-N-{2-[4-(trifluoromethyl)phenyl]ethyl}pyrrolidine-2-carboxamide], in assay [1] (setting [4]), the Kb came to 1670 nM. Besides, the “NPFF1 Ke” value in assay [1] (calcium mobilization assay) is reported as 1,670 nM.

As for `CSc1ccc(CN[C@H]2C[C@@H](C(=O)NCCc3ccc(F)c(F)c3)N(Cc3ccccc3Cl)C2)cc1` [Compound 48, (2S,4S)-1-[(2-Chlorophenyl)methyl]-N-[2-(3,4-difluorophenyl)ethyl]-4-{[(4-(methylthio)phenyl)methyl]amino}pyrrolidine-2-carboxamide], the Kb in assay [1] (setting [5]) worked out at 470 ± 60 nM; in assay [1] (calcium mobilization assay), 470 nM; in assay [2] (Table 2, footnote c: pre-incubation 1 hr), 880 ± 160 nM.

As for `COc1ccc(CN[C@H]2C[C@@H](C(=O)NC(C)(C)C)N(Cc3ccccc3Cl)C2)cc1` [Compound 15, (2S,4S)—N-tert-Butyl-1-[(2-chlorophenyl)methyl]-4-{[(4-methoxyphenyl)methyl]amino}pyrrolidine-2-carboxamide], the Kb in assay [1] (setting [4]) was 1880 nM; in assay [2] (setting [3]), 1260 nM.

As to `COc1ccc(CN[C@H]2C[C@@H](C(=O)NCCc3ccccc3)N(Cc3ccc(Cl)cc3)C2)cc1` [Compound 78, (2S,4S)-1-[(4-Chlorophenyl)methyl]-4-{[(4-methoxyphenyl)methyl]amino}-N-(2-phenylethyl)pyrrolidine-2-carboxamide], the Kb in assay [1] (Table 4, mean ± SEM) is 2150 nM; in assay [2] (Table 4, mean ± SEM), 4850 nM.

As for `COc1ccc(CN[C@H]2C[C@@H](C(=O)NCCc3ccccc3)N(Cc3ccccc3)C2)cc1` [Compound 76, (2S,4S)-1-Benzyl-4-{[(4-methoxyphenyl)methyl]amino}-N-(2-phenylethyl)pyrrolidine-2-carboxamide], the Kb was 1270 nM in assay [1] (Table 4, mean ± SEM) and above 10000 nM in assay [2] (Table 4, mean ± SEM).

Consider `CCN(CC)C(=O)[C@@H]1C[C@H](NCc2ccc(OC)cc2)CN1Cc1ccccc1Cl` [Compound 40, (2S,4S)-1-[(2-Chlorophenyl)methyl]-N,N-diethyl-4-{[(4-methoxyphenyl)methyl]amino}pyrrolidine-2-carboxamide], for which the Kb in assay [1] (setting [4]) amounted to 2900 nM; in assay [2] (setting [4]), 4930 nM.

For the compound `COc1ccc(CN[C@H]2C[C@@H](C(=O)NCCc3ccc(S(C)(=O)=O)cc3)N(Cc3ccccc3Cl)C2)cc1` [Compound 39, (2S,4S)-1-[(2-Chlorophenyl)methyl]-N-[2-(4-methanesulfonylphenyl)ethyl]-4-{[(4-methoxyphenyl)methyl]amino}pyrrolidine-2-carboxamide], in assay [1] (setting [4]), the Kb was 1880 nM.

For the compound `COc1cccc(CN[C@H]2C[C@@H](C(=O)NCCc3ccc([N+](=O)[O-])cc3)N(Cc3ccccc3Cl)C2)c1` [Compound 59, (2S,4S)-1-[(2-Chlorophenyl)methyl]-4-{[(3-methoxyphenyl)methyl]amino}-N-[2-(4-nitrophenyl)ethyl]pyrrolidine-2-carboxamide], the Kb is 1390 nM in assay [1] (Table 3, mean ± SEM) and 2820 nM in assay [2] (Table 3, mean ± SEM).

In the case of `CCCCCN[C@H]1C[C@@H](C(=O)NCCc2ccc([N+](=O)[O-])cc2)N(Cc2ccccc2Cl)C1` [Compound 54, (2S,4S)-1-[(2-Chlorophenyl)methyl]-N-[2-(4-nitrophenyl)ethyl]-4-(pentylamino) pyrrolidine-2-carboxamide], the Kb in assay [1] (Table 3, mean ± SEM) is 2480 nM; in assay [2] (Table 3, mean ± SEM), above 10000 nM.

With `COc1ccc(CN[C@H]2C[C@@H](C(=O)NCCc3ccc(F)cc3)N(Cc3ccccc3Cl)C2)cc1` [Compound 35, (2S,4S)-1-[(2-Chlorophenyl)methyl]-N-[2-(4-fluorophenyl)ethyl]-4-{[(4-methoxyphenyl)methyl]amino}pyrrolidine-2-carboxamide], the Kb was found to be 1130 nM in assay [1] (setting [4]) and 9880 nM in assay [2] (setting [4]). In addition, the “NPFF1 Ke” value in assay [1] (calcium mobilization assay) is reported as 1,130 nM.

For `COc1ccc(CN[C@H]2C[C@@H](C(=O)N3CCN(c4ccccc4)CC3)N(Cc3ccccc3Cl)C2)cc1` [Compound 42, (3S,5S)-1-[(2-Chlorophenyl)methyl]-N-[(4-methoxyphenyl)methyl]-5-(4-phenylpiperazine-1-carbonyl)pyrrolidin-3-amine], the Kb in assay [1] (setting [3]) came to 1330 nM; in assay [2] (setting [3]), 2080 nM. Moreover, in assay [1] (calcium mobilization assay), the “NPFF1 Ke” value is given as 1,330 nM. Also, the “type of antagonism in curve-shift assays” value in assay [1] is given as “insurmountable antagonism”.

`CNC(=O)[C@@H]1C[C@H](NCc2ccc(OC)cc2)CN1Cc1ccccc1Cl` [Compound 10, (2S,4S)-1-[(2-Chlorophenyl)methyl]-4-{[(4-methoxyphenyl)methyl]amino}-N-methylpyrrolidine-2-carboxamide]: the “NPFF1 antagonist activity” value in assay [1] (at 10 μM) was “inactive”. Besides, the “NPFF2 antagonist activity” value in assay [2] (at 10 μM) was “inactive”.

Turning to `CCCN(CCC)C(=O)[C@@H]1C[C@H](NCc2ccc(OC)cc2)CN1Cc1ccccc1Cl` [Compound 41, (2S,4S)-1-[(2-Chlorophenyl)methyl]-4-{[(4-methoxyphenyl)methyl]amino}-N,N-dipropylpyrrolidine-2-carboxamide], the results for the Kb in assay [1] (setting [3]), in assay [1] (calcium mobilization assay) and in assay [2] (setting [3]) were 880 ± 120 nM, 880 nM and 1730 nM, respectively. Besides, the “type of antagonism in curve-shift assays” value in assay [1] is recorded as “insurmountable antagonism”.

For the compound `CCNC(=O)[C@@H]1C[C@H](NCc2ccc(SC)cc2)CN1Cc1ccccc1Cl` [Compound 43, (2S,4S)-1-[(2-Chlorophenyl)methyl]-N-ethyl-4-{[(4-(methylthio)phenyl)methyl]amino}pyrrolidine-2-carboxamide], the figures for the Kb in assay [1] (setting [5]) and in assay [2] (setting [5]) were 1080 nM and 5600 nM, respectively.

In the case of `COc1ccc(CN[C@H]2C[C@@H](C(=O)NCCN3CCOCC3)N(Cc3ccccc3Cl)C2)cc1` [Compound 20, (2S,4S)-1-[(2-Chlorophenyl)methyl]-4-{[(4-methoxyphenyl)methyl]amino}-N-[2-(morpholin-4-yl)ethyl]pyrrolidine-2-carboxamide], the Kb in assay [1] (setting [4]) stood at 1960 nM.

Consider `COc1ccc(CN[C@H]2C[C@@H](C(=O)NCCc3ccncc3)N(Cc3ccccc3Cl)C2)cc1` [Compound 37, (2S,4S)-1-[(2-Chlorophenyl)methyl]-4-{[(4-methoxyphenyl)methyl]amino}-N-[2-(pyridin-4-yl)ethyl]pyrrolidine-2-carboxamide], for which the Kb in assay [1] (setting [4]) came to 1820 nM. In addition, the “NPFF1 Ke” value in assay [1] (calcium mobilization assay) is given as 1,820 nM.

For the compound `CCCCNC(=O)[C@@H]1C[C@H](NCc2ccc(OC)cc2)CN1Cc1ccccc1Cl` [Compound 13, (2S,4S)—N-Butyl-1-[(2-chlorophenyl)methyl]-4-{[(4-methoxyphenyl)methyl]amino}pyrrolidine-2-carboxamide], the Kb in assay [1] (setting [4]) stood at 1240 nM.
